# Measured values reported in patent publication US20060018826A1, “Biologic modulations with nanoparticles” (priority 2002, published 2006).
# Test system: hormone-insensitive PC3 cells
# Experiment: Growth inhibition in prostate carcinoma cells
# Type: cell-based
# Experimental: In these studies, cells were seeded at 5,000 cells per untreated well.
sequence,measurement,value
"GTCCCGACATGTCAGACAGG (antisense GTCCCGACATGTCAGACAGG; chemistry not given here) [SEQ ID NO 1, antisense 20 mer spanning the translation start site of CK2α]",IC50 as % of cisplatin's IC50,65%
